Data reported in PubChem BioAssay (NCI).
Values joined by “and” are separate entries in the source; they are usually repeats but may differ in a detail not shown here. Equal values may be shown once.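 96-well plates; 48 h exposure; 5 concentrations. Endpoints by linear interpolation between flanking doses. Not reached: highest tested concentration assigned. GI50 = concentration required for 50% inhibition of growth. TGI marks complete inhibition of growth.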

System: CAKI-1 renal
Test: NCI anticancer screen, dose series, 48 h

| SMILES | GI50 [µM] | TGI [µM] |
| --- | --- | --- |
| COc1cc2c(cc1OCCCOc1cc3c(cc1OC)C(=O)N1C[C@H](F)C[C@H]1C=N3)N=C[C@@H]1C[C@@H](F)CN1C2=O | 4.83 | 17.6 |
| c1ccc2c(c1)CCC/C2=N\OCC1CO1 (stereo unspecified) | – | > 100 |
| CC/C(C)=C1\CCC(CN2CCOCC2)C1=O (stereo unspecified) | – | 5.99 |
| COC(=O)C1C(C(=O)OC)C2(OC)c3ccccc3-c3ccccc3C12 (stereo unspecified) | – | > 100 |
| O=C1OC(CC(=O)c2ccc(Cl)c(Cl)c2)C(Cl)=C1Cl (stereo unspecified) | – | > 100 |
| CCN(CC)CC(O)CNc1ccc(NCC2CO2)c2c1C(=O)c1ccccc1C2=O (stereo unspecified) | 0.757 | 2.59 |
| O=[N+]([O-])c1cccc(C2N3CCCCC3[C@@H]3c4[nH]c5ccccc5c4CCN23)c1 (stereo partly specified) | – | > 100 |
| Cc1c[nH]c2c(O)cc3c(c12)[C@H](CCl)CN3C(=O)c1cc2cc(NC(=O)Nc3ccc4[nH]c(C(=O)N5C[C@@H](CCl)c6c5cc(O)c5[nH]cc(C)c65)cc4c3)ccc2[nH]1 | 0.000268 | – |
| CCOC(=O)NC(=O)c1cn(CC(=O)NCC(=O)NCC(=O)NCCCN2CCN(CCCNC(=O)CNC(=O)CNC(=O)Cn3cc(C(=O)NC(=O)OCC)c(=O)[nH]c3=O)CC2)c(=O)[nH]c1=O | – | > 100 |
| CC[C@@H]1OC2(C)CC(S(=O)(=O)c3ccccc3O)CC1O2 (stereo partly specified) | – | > 100 |
| CCOC(=O)C(N)C[S][Sn]([CH3])([CH3])[Cl] (stereo unspecified) | > 100 | > 100 |
| CC(=O)OCC1OC(N2C(=O)C(=O)c3cc(C)ccc32)C(OC(C)=O)C(OC(C)=O)C1OC(C)=O (stereo unspecified) | – | > 100 |
| Cc1cc(C)c([O-])c(CN(C)CCN(C)Cc2cc(C)cc(C)c2[O-])c1.O=C([O-])c1cccc(C(=O)[O-])n1.[Ti+4] | 3.93 | > 100 |
| COc1cc(OC)c(/C=C/S(=O)(=O)Cc2cnc(OC)c(N)c2)c(OC)c1 | < 0.0177 | > 100 |
| CN1CCN(CCCN)CC1 | – | > 100 |
| COc1cc(Cl)c2c3c(c(C(C)=O)oc13)CCC2 | – | > 100 |
| Nc1ccc(N(S(=O)(=O)c2ccccc2)S(=O)(=O)c2ccccc2)c(Cl)c1 | – | > 100 |
| CC(O)c1cccc(NCc2c3ccccc3c(=O)n3c2oc2ccccc23)c1 (stereo unspecified) | 7.29 | > 100 |
| C=CC1(C(=O)O)CCC(C(C)(C)C)CC1 (stereo unspecified) | – | > 100 |
| NC(=O)C(=Cc1ccc(C(O)P(=O)(O)O)cc1)C(N)=O (stereo unspecified) | – | > 100 |
| O=C(Nc1cc(Cl)c(Cl)cc1Cl)C(=O)C1C=CCS1(=O)=O (stereo unspecified) | – | > 100 |
| CCNC(=O)CCN(C(=O)O)S(=O)(=O)c1ccc(NC(=O)c2ccccc2)cc1 | – | > 100 |
| O=C(/C=C/c1ccc([N+](=O)[O-])o1)N1CCN(Cc2ccccc2)CC1 | – | 21.7 |
| CC1C[C@@]2(c3ccccc3)C(=O)CCC[C@H]2N1 (stereo partly specified) | – | > 100 |
| O=[N+]([O-])c1cccc(/C=N\NS(=O)(=O)c2ccc(Cl)cc2)c1O | – | > 100 |
| CC1=C(C(=O)Nc2ccccc2C)C(c2ccc(Cl)c(Cl)c2)C(C(=O)Nc2ccccc2C)=C(C)N1 | – | > 100 |
| Cc1cc(I)cc(CN(C)CCCN2CCSCC2)c1O | 20 | 40.7 |
| Cc1[nH]c2ccccc2c1C1Cc2ccccc2N1C(=O)/C=C\C(=O)O (stereo unspecified) | – | > 100 |
| CCOC(=O)c1cc(C#N)c(=O)n(/N=C(\C)c2ccncc2)c1O | > 100 | > 100 |

System: CCRF-CEM leukemia
Test: NCI anticancer screen, dose series, 48 h

| SMILES | GI50 [µM] | TGI |
| --- | --- | --- |
| COc1cc2c(cc1OCCCOc1cc3c(cc1OC)C(=O)N1C[C@H](F)C[C@H]1C=N3)N=C[C@@H]1C[C@@H](F)CN1C2=O | 3.8 | 51.7 µM |
| c1ccc2c(c1)CCC/C2=N\OCC1CO1 (stereo unspecified) | – | > 100 µM |
| CC/C(C)=C1\CCC(CN2CCOCC2)C1=O (stereo unspecified) | – | 32 µM |
| COC(=O)C1C(C(=O)OC)C2(OC)c3ccccc3-c3ccccc3C12 (stereo unspecified) | – | 64.3 µM |
| O=C1OC(CC(=O)c2ccc(Cl)c(Cl)c2)C(Cl)=C1Cl (stereo unspecified) | – | 62.5 µM |
| CC(=O)c1cccc(N2COC(C)(C)c3nc4ccccc4n3C2)c1 | – | > 100 µM |
| O=[N+]([O-])c1cccc(C2N3CCCCC3[C@@H]3c4[nH]c5ccccc5c4CCN23)c1 (stereo partly specified) | – | 41 µM |
| CCOC(=O)NC(=O)c1cn(CC(=O)NCC(=O)NCC(=O)NCCCN2CCN(CCCNC(=O)CNC(=O)CNC(=O)Cn3cc(C(=O)NC(=O)OCC)c(=O)[nH]c3=O)CC2)c(=O)[nH]c1=O | – | > 100 µM |
| O=S(=O)(N/N=C/c1ccc(/C=N/NS(=O)(=O)c2ccccc2)cc1)c1ccccc1 | – | 90.2 µM |
| CC[C@@H]1OC2(C)CC(S(=O)(=O)c3ccccc3O)CC1O2 (stereo partly specified) | – | > 100 µM |
| CCOC(=O)C(N)C[S][Sn]([CH3])([CH3])[Cl] (stereo unspecified) | > 55.2 | > 100 µM |
| NNC(=O)/C(=C/c1ccc(Cl)c(Cl)c1)NC(=O)c1ccccc1 | – | > 100 µM |
| CC(=O)OCC1OC(N2C(=O)C(=O)c3cc(C)ccc32)C(OC(C)=O)C(OC(C)=O)C1OC(C)=O (stereo unspecified) | – | > 100 µM |
| O=C1c2ccccc2-c2cccc3ccc(Cc4ccc5ccccc5c4)c1c23 | – | > 100 µM |
| COc1cc(OC)c(/C=C/S(=O)(=O)Cc2cnc(OC)c(N)c2)c(OC)c1 | < 0.0204 | > 100 µM |
| CCOC(=O)C(Cc1c[nH]c2ccc(N)cc12)(NC(C)=O)C(=O)OCC | 656 | > 1000 µM |
| CN1CCN(CCCN)CC1 | – | > 100 µM |

| SMILES | GI50 [µM] | TGI |
| --- | --- | --- |
| COc1cc(Cl)c2c3c(c(C(C)=O)oc13)CCC2 | – | > 100 µM |
| CC(=O)Nc1ccc(C(=O)NN2C(=O)C(Cl)C2c2ccc(Cl)cc2)cc1 (stereo unspecified) | – | > 100 µM |
| CCCCc1c2c(nc3c1CCC/C3=C\c1ccccc1)C(=O)CCC2 | – | 61.7 µM |
| CC(O)c1cccc(NCc2c3ccccc3c(=O)n3c2oc2ccccc23)c1 (stereo unspecified) | 3.34 | > 100 µM |
| COc1ccc([N+]2=NC(c3ccc([N+](=O)[O-])cc3)=NN(c3ccccc3)C2)cc1 | – | 92.8 µM and 52.1 µM |
| O=C(Nc1cc(Cl)c(Cl)cc1Cl)C(=O)C1C=CCS1(=O)=O (stereo unspecified) | – | > 100 µM |
| CCNC(=O)CCN(C(=O)O)S(=O)(=O)c1ccc(NC(=O)c2ccccc2)cc1 | – | > 100 µM |
| O=C(/C=C/c1ccc([N+](=O)[O-])o1)N1CCN(Cc2ccccc2)CC1 | – | 27.4 µM |
| CC1C[C@@]2(c3ccccc3)C(=O)CCC[C@H]2N1 (stereo partly specified) | – | > 100 µM |
| O=[N+]([O-])c1cccc(/C=N\NS(=O)(=O)c2ccc(Cl)cc2)c1O | – | > 100 µM |
| CC(=O)N[C@H]1C=C[C@@H]2/C=C(C)/C=C/[C@@H](C)[C@H]([C@H](C)[C@H](O)[C@@H](C)NC(C)=O)OC(=O)/C=C/C=C(C)\C=C\[C@]2(C)C1 | 6.32 | > 45 µM |
| CC1=C(C(=O)Nc2ccccc2C)C(c2ccc(Cl)c(Cl)c2)C(C(=O)Nc2ccccc2C)=C(C)N1 | – | 54.8 µM |
| CCCCOC(=O)NC(=O)c1cn(CCCOC(=O)CCCCCCCCC(=O)OCCCn2cc(C(=O)NC(=O)OCCCC)c(=O)[nH]c2=O)c(=O)[nH]c1=O | – | > 100 µM |
| Cc1[nH]c2ccccc2c1C1Cc2ccccc2N1C(=O)/C=C\C(=O)O (stereo unspecified) | – | 94.1 µM |
| CCN(CC)CCC(=O)NC1c2ccc(Cl)cc2Oc2c(C)cccc21 (stereo unspecified) | – | 37 µM |
| Nc1c(C(=O)c2ccc(Cl)cc2)sc(Nc2ccccc2)c1-c1nc2ccccc2s1 | 13.9 | > 100 µM |
| CCOC(=O)c1cc(C#N)c(=O)n(/N=C(\C)c2ccncc2)c1O | > 100 | > 100 µM |

System: DU-145 prostate
Test: NCI anticancer screen, dose series, 48 h

| SMILES | GI50 | TGI |
| --- | --- | --- |
| COc1cc2c(cc1OCCCOc1cc3c(cc1OC)C(=O)N1C[C@H](F)C[C@H]1C=N3)N=C[C@@H]1C[C@@H](F)CN1C2=O | 3.44 µM | 14.7 µM |
| CCN(CC)CC(O)CNc1ccc(NCC2CO2)c2c1C(=O)c1ccccc1C2=O (stereo unspecified) | – | 5.04 µM |
| Cc1c[nH]c2c(O)cc3c(c12)[C@H](CCl)CN3C(=O)c1cc2cc(NC(=O)Nc3ccc4[nH]c(C(=O)N5C[C@@H](CCl)c6c5cc(O)c5[nH]cc(C)c65)cc4c3)ccc2[nH]1 | 0.000923 µM | – |
| Cc1cc(C)c([O-])c(CN(C)CCN(C)Cc2cc(C)cc(C)c2[O-])c1.O=C([O-])c1cccc(C(=O)[O-])n1.[Ti+4] | 4.57 µM | > 100 µM |
| COc1cc(OC)c(/C=C/S(=O)(=O)Cc2cnc(OC)c(N)c2)c(OC)c1 | < 0.0202 µM | > 100 µM |
| CCOC(=O)C(Cc1c[nH]c2ccc(N)cc12)(NC(C)=O)C(=O)OCC | > 1000 µM | > 1000 µM |
| CN1CCN(CCCN)CC1 | – | > 100 µM |
| CC(=O)Nc1ccc(C(=O)NN2C(=O)C(Cl)C2c2ccc(Cl)cc2)cc1 (stereo unspecified) | – | > 100 µM |
| Nc1ccc(N(S(=O)(=O)c2ccccc2)S(=O)(=O)c2ccccc2)c(Cl)c1 | – | > 100 µM |
| CC(O)c1cccc(NCc2c3ccccc3c(=O)n3c2oc2ccccc23)c1 (stereo unspecified) | 5.46 µM | > 100 µM |
| CC(=O)N[C@H]1C=C[C@@H]2/C=C(C)/C=C/[C@@H](C)[C@H]([C@H](C)[C@H](O)[C@@H](C)NC(C)=O)OC(=O)/C=C/C=C(C)\C=C\[C@]2(C)C1 | 0.0294 µM and 0.00897 µM | 4.65 µM and > 45 µM |
| Cc1cc(I)cc(CN(C)CCCN2CCSCC2)c1O | 41 µM | > 100 µM |
| CCN(CC)CCC(=O)NC1c2ccc(Cl)cc2Oc2c(C)cccc21 (stereo unspecified) | – | 32.9 µM |
| CCOC(=O)c1cc(C#N)c(=O)n(/N=C(\C)c2ccncc2)c1O | > 100 µM | > 100 µM |
